Assay results reported in ChEMBL document CHEMBL3885861, “Open TG-GATES”.

Species on record: Rattus norvegicus
Experiment: Open TG-GATES - Regimen: Daily Repeat
Format: toxicity, organism-based, Sprague-Dawley
Set-up: regimen Daily Repeat, gender Male, age 6 weeks
Conditions: in vivo, iv, 300 mg/kg, route intravenous injection, dose level Low; for APTT / Bas / Eos / Fbg / Hb / Ht / Lym / MCH / MCHC / MCV / Mono / Neu / PT / Plat / RBC / Ret / WBC: tissue Blood; for KIDNEY_L / KIDNEY_R / KIDNEY_TOTAL: tissue Kidney; for LIVER: tissue Liver; for ALP / ALT / AST / BUN / CRE / Ca / Cl / DBIL / GLC / IP / K / LDH / Na / PL / RALB / TBIL / TC / TG / TP / gamma-GTP: tissue Plasma

CC(=O)OCC1=C(C(=O)O)N2C(=O)[C@@H](NC(=O)Cc3cccs3)[C@H]2SC1 [CEPHALOTHIN]
TERMINAL_BW (72 h, time 3 day): 226.8 g
APTT (72 h, time 3 day): 22.4 s
Bas (72 h, time 3 day): 0%
Eos (72 h, time 3 day): 1.2%
Fbg (72 h, time 3 day): 291.2 mg/dL
Hb (72 h, time 3 day): 13.4 g/dL
Ht (72 h, time 3 day): 38.4%
Lym (72 h, time 3 day): 84.4%
MCH (72 h, time 3 day): 21.1 pg
MCHC (72 h, time 3 day): 35%
MCV (72 h, time 3 day): 60.2 fL
Mono (72 h, time 3 day): 2.8%
Neu (72 h, time 3 day): 10.6%
PT (72 h, time 3 day): 16.2 s
Plat (72 h, time 3 day): 131.5 x10_4/uL
RBC (72 h, time 3 day): 636.8 x10_4/ul
Ret (72 h, time 3 day): 6%
WBC (72 h, time 3 day): 103.7 x10_2/uL
KIDNEY_L (72 h, time 3 day): 1 g
KIDNEY_R (72 h, time 3 day): 1 g
KIDNEY_TOTAL (72 h, time 3 day): 1.9 g
LIVER (72 h, time 3 day): 10.3 g
ALP (72 h, time 3 day): 1513.6 IU/L
ALT (72 h, time 3 day): 37.8 IU/L
AST (72 h, time 3 day): 68.2 IU/L
BUN (72 h, time 3 day): 15.6 mg/dL
CRE (72 h, time 3 day): 0.1 mg/dL
Ca (72 h, time 3 day): 10.7 mg/dL
Cl (72 h, time 3 day): 106 meq/L
DBIL (72 h, time 3 day): 0 mg/dL
GLC (72 h, time 3 day): 175.4 mg/dL
IP (72 h, time 3 day): 6.1 mg/dL
K (72 h, time 3 day): 4.6 meq/L
LDH (72 h, time 3 day): 166 IU/L
Na (72 h, time 3 day): 140.4 meq/L
PL (72 h, time 3 day): 140 mg/dL
RALB (72 h, time 3 day): 3.1 g/dL
TBIL (72 h, time 3 day): 0.008 mg/dL
TC (72 h, time 3 day): 75.8 mg/dL
TG (72 h, time 3 day): 106.4 mg/dL
TP (72 h, time 3 day): 5.5 g/dL
gamma-GTP (72 h, time 3 day): 1.6 IU/L
TERMINAL_BW ([…], time 7 day): 260.2 g
TERMINAL_BW ([…], time 14 day): 304.3 g
TERMINAL_BW ([…], time 28 day): 378.7 g
APTT ([…], time 7 day): 22.5 s
Bas ([…], time 7 day): 0%
Eos ([…], time 7 day): 0.8%
Fbg ([…], time 7 day): 310 mg/dL
Hb ([…], time 7 day): 13.5 g/dL
Ht ([…], time 7 day): 38.9%
Lym ([…], time 7 day): 88.8%
MCH ([…], time 7 day): 20.8 pg
MCHC ([…], time 7 day): 34.6%
MCV ([…], time 7 day): 60.2 fL
Mono ([…], time 7 day): 1.6%
Neu ([…], time 7 day): 7.8%
PT ([…], time 7 day): 16.7 s
Plat ([…], time 7 day): 122.1 x10_4/uL
RBC ([…], time 7 day): 647 x10_4/ul
Ret ([…], time 7 day): 5.6%
WBC ([…], time 7 day): 91 x10_2/uL
APTT ([…], time 14 day): 24.3 s
Bas ([…], time 14 day): 0%
Eos ([…], time 14 day): 1%
Fbg ([…], time 14 day): 257.6 mg/dL
Hb ([…], time 14 day): 14.4 g/dL
Ht ([…], time 14 day): 40.4%
Lym ([…], time 14 day): 89.8%
MCH ([…], time 14 day): 20.7 pg
MCHC ([…], time 14 day): 35.6%
MCV ([…], time 14 day): 58.2 fL
Mono ([…], time 14 day): 1.8%
Neu ([…], time 14 day): 6.8%
PT ([…], time 14 day): 16.1 s
Plat ([…], time 14 day): 121.1 x10_4/uL
RBC ([…], time 14 day): 694 x10_4/ul
Ret ([…], time 14 day): 4.7%
WBC ([…], time 14 day): 103.2 x10_2/uL
APTT ([…], time 28 day): 25.4 s
Bas ([…], time 28 day): 0%
Eos ([…], time 28 day): 1.6%
Fbg ([…], time 28 day): 293.8 mg/dL
Hb ([…], time 28 day): 15.4 g/dL
Ht ([…], time 28 day): 42.1%
Lym ([…], time 28 day): 87.4%
MCH ([…], time 28 day): 19.1 pg
MCHC ([…], time 28 day): 36.6%
MCV ([…], time 28 day): 52.3 fL
Mono ([…], time 28 day): 2.4%
Neu ([…], time 28 day): 8.2%
PT ([…], time 28 day): 16.2 s
Plat ([…], time 28 day): 107.1 x10_4/uL
RBC ([…], time 28 day): 805.4 x10_4/ul
Ret ([…], time 28 day): 2.3%
WBC ([…], time 28 day): 92.3 x10_2/uL
KIDNEY_L ([…], time 7 day): 1.1 g
KIDNEY_R ([…], time 7 day): 1.1 g
KIDNEY_TOTAL ([…], time 7 day): 2.1 g
KIDNEY_L ([…], time 14 day): 1.2 g
KIDNEY_R ([…], time 14 day): 1.3 g
KIDNEY_TOTAL ([…], time 14 day): 2.5 g
KIDNEY_L ([…], time 28 day): 1.4 g
KIDNEY_R ([…], time 28 day): 1.4 g
KIDNEY_TOTAL ([…], time 28 day): 2.8 g
LIVER ([…], time 7 day): 11.8 g
LIVER ([…], time 14 day): 12.3 g
LIVER ([…], time 28 day): 14.2 g
ALP ([…], time 7 day): 1472.6 IU/L
ALT ([…], time 7 day): 34.4 IU/L
AST ([…], time 7 day): 68.2 IU/L
BUN ([…], time 7 day): 17.8 mg/dL
CRE ([…], time 7 day): 0.2 mg/dL
Ca ([…], time 7 day): 10.6 mg/dL
Cl ([…], time 7 day): 106.2 meq/L
DBIL ([…], time 7 day): 0 mg/dL
GLC ([…], time 7 day): 174.4 mg/dL
IP ([…], time 7 day): 7 mg/dL
K ([…], time 7 day): 4.4 meq/L
LDH ([…], time 7 day): 178.2 IU/L
Na ([…], time 7 day): 141.4 meq/L
PL ([…], time 7 day): 144.6 mg/dL
RALB ([…], time 7 day): 3 g/dL
TBIL ([…], time 7 day): 0.004 mg/dL
TC ([…], time 7 day): 71.2 mg/dL
TG ([…], time 7 day): 146.8 mg/dL
TP ([…], time 7 day): 5.5 g/dL
gamma-GTP ([…], time 7 day): 1.6 IU/L
ALP ([…], time 14 day): 1293.4 IU/L
ALT ([…], time 14 day): 29.6 IU/L
AST ([…], time 14 day): 57.8 IU/L
BUN ([…], time 14 day): 16.8 mg/dL
CRE ([…], time 14 day): 0.2 mg/dL
Ca ([…], time 14 day): 10.9 mg/dL
Cl ([…], time 14 day): 106.2 meq/L
DBIL ([…], time 14 day): 0 mg/dL
GLC ([…], time 14 day): 179.4 mg/dL
IP ([…], time 14 day): 6.9 mg/dL
K ([…], time 14 day): 4.2 meq/L
LDH ([…], time 14 day): 109.2 IU/L
Na ([…], time 14 day): 142.2 meq/L
PL ([…], time 14 day): 142.6 mg/dL
RALB ([…], time 14 day): 3.1 g/dL
TBIL ([…], time 14 day): 0.01 mg/dL
TC ([…], time 14 day): 75 mg/dL
TG ([…], time 14 day): 103.4 mg/dL
TP ([…], time 14 day): 5.7 g/dL
gamma-GTP ([…], time 14 day): 2 IU/L
ALP ([…], time 28 day): 1007.4 IU/L
ALT ([…], time 28 day): 30.4 IU/L
AST ([…], time 28 day): 58.8 IU/L
BUN ([…], time 28 day): 16.6 mg/dL
CRE ([…], time 28 day): 0.2 mg/dL
Ca ([…], time 28 day): 10.5 mg/dL
Cl ([…], time 28 day): 106.8 meq/L
DBIL ([…], time 28 day): 0.004 mg/dL
GLC ([…], time 28 day): 168.4 mg/dL
IP ([…], time 28 day): 5.6 mg/dL
K ([…], time 28 day): 4.1 meq/L
LDH ([…], time 28 day): 158 IU/L
Na ([…], time 28 day): 143.2 meq/L
PL ([…], time 28 day): 134.2 mg/dL
RALB ([…], time 28 day): 3.1 g/dL
TBIL ([…], time 28 day): 0.006 mg/dL
TC ([…], time 28 day): 65.6 mg/dL
TG ([…], time 28 day): 141.2 mg/dL
TP ([…], time 28 day): 5.9 g/dL
gamma-GTP ([…], time 28 day): 1 IU/L
